Experimental data published in ChEMBL document CHEMBL5331107 (J Med Chem, 2023).

How the values were obtained:
[1] = MRT (0 to infinity) in Sprague-Dawley rat at 2 mg/kg, iv measured at 5 to 600 min by LC-MS/MS analysis; type: ADME, organism-based; settings: in vivo, time 5-600 min
[2] = Subacute toxicity in Kunming mouse assessed as effect on body weight at 50 mg/kg, IG administered via gavage every other day and measured after 14 days; type: organism-based; settings: in vivo, po, 336 h, time 14 day
[3] = MRT (0 to last) in Sprague-Dawley rat at 2 mg/kg, iv measured at 5 to 600 min by LC-MS/MS analysis; type: ADME, organism-based; settings: in vivo, time 5-600 min
[4] = tested on: Human immunodeficiency virus 1; experiment: Antiviral activity against NNRTI-resistant HIV-1 harboring E138K mutant infected in human MT4 cells assessed as protection against virus-induced cytopathic effect incubated for 5 days by MTT assay; type: functional, organism-based; settings: Human immunodeficiency virus 1, MT4, 120 h
[5] = Acute toxicity in Kunming mouse assessed as tolerance at 1000 mg/kg, IG administered as single dose and measured after 7 days; type: organism-based; settings: in vivo, po, 168 h, time 7 day
[6] = AUC (0 to last) in Sprague-Dawley rat at 10 mg/kg, po measured at 15 to 720 min by LC-MS/MS analysis; type: ADME, organism-based; set-up: time upper 720 min, time lower 15 min, dose 10 mg/kg, route po; settings: in vivo
[7] = Subacute toxicity in Kunming mouse assessed as dyspnoea at 50 mg/kg, IG administered via gavage every other day and measured after 14 days; type: organism-based; settings: in vivo, po, 336 h, time 14 day
[8] = Subacute toxicity in Kunming mouse assessed as histopathological change in liver at 50 mg/kg, IG administered via gavage every other day and measured after 14 days by H&E staining based analysis; type: organism-based; settings: in vivo, po, 336 h, time 14 day
[9] = Acute toxicity in Kunming mouse assessed as effect on body weight at 1000 mg/kg, IG administered as single dose and measured after 7 days; type: organism-based; settings: in vivo, po, 168 h, time 7 day
[10] = Metabolic stability in human plasma assessed as half-life incubated for 120 mins by LC-MS/MS analysis; type: ADME, cell-free
[11] = Acute toxicity in Kunming mouse assessed as effect on alopecia at 1000 mg/kg, IG administered as single dose and measured after 7 days; type: organism-based; settings: in vivo, po, 168 h, time 7 day
[12] = Tmax in Sprague-Dawley rat at 10 mg/kg, po measured at 15 to 720 min by LC-MS/MS analysis; type: ADME, organism-based; settings: in vivo, time 15-720 min
[13] = Metabolic stability in human plasma assessed as compound remaining incubated for 120 mins by LC-MS/MS analysis; type: ADME, cell-free; settings: read-out: Stability
[14] = Subacute toxicity in Kunming mouse assessed as histopathological change in kidney at 50 mg/kg, IG administered via gavage every other day and measured after 14 days by H&E staining based analysis; type: organism-based; settings: in vivo, po, 336 h, time 14 day
[15] = AUC (0 to infinity) in Sprague-Dawley rat at 10 mg/kg, po measured at 15 to 720 min by LC-MS/MS analysis; type: ADME, organism-based; set-up: dose 10 mg/kg, time upper 720 min, time lower 15 min, route po; settings: in vivo
[16] = Subacute toxicity in Kunming mouse assessed as anorexia at 50 mg/kg, IG administered via gavage every other day and measured after 14 days; type: organism-based; settings: in vivo, po, 336 h, time 14 day
[17] = target: Human immunodeficiency virus type 1 reverse transcriptase (Human immunodeficiency virus 1, UniProt Q72547); experiment: Inhibition of HIV-1 reverse transcriptase assessed as assessed as reduction of biotin-dUTP incorporation into […] incubated for 1 hrs by ELISA analysis
[18] = Half-life in Sprague-Dawley rat at 10 mg/kg, po measured at 15 to 720 min by LC-MS/MS analysis; type: ADME, organism-based; settings: in vivo, time 15-720 min
[19] = Clearance in Sprague-Dawley rat at 2 mg/kg, iv measured at 5 to 600 min by LC-MS/MS analysis; type: ADME, organism-based; settings: in vivo, time 5-600 min
[20] = Acute toxicity in Kunming mouse upto 1000 mg/kg, IG administered as single dose and measured after 7 days; type: organism-based; settings: in vivo, po, 168 h, time 7 day
[21] = Acute toxicity in Kunming mouse assessed as effect on lethargy at 1000 mg/kg, IG administered as single dose and measured after 7 days; type: organism-based; settings: in vivo, po, 168 h, time 7 day
[22] = Subacute toxicity in Kunming mouse assessed as histopathological change in spleen at 50 mg/kg, IG administered via gavage every other day and measured after 14 days by H&E staining based analysis; type: organism-based; settings: in vivo, po, 336 h, time 14 day
[23] = tested on: Human immunodeficiency virus 1; experiment: Antiviral activity against NNRTI-resistant HIV-1 harboring F227L and V106A double mutant infected in human MT4 cells assessed as protection against virus-induced cytopathic effect incubated for 5 days by MTT assay; type: functional, organism-based; settings: Human immunodeficiency virus 1, MT4, 120 h
[24] = Acute toxicity in Kunming mouse assessed as effect on dyspnea at 1000 mg/kg, IG administered as single dose and measured after 7 days; type: organism-based; settings: in vivo, po, 168 h, time 7 day
[25] = Cytotoxicity against human MT4 cells assessed as reduction in cell viability incubated for 5 days by MTT assay; type: toxicity, cell-based; settings: time 5 day
[26] = Subacute toxicity in Kunming mouse assessed as histopathological change in heart at 50 mg/kg, IG administered via gavage every other day and measured after 14 days by H&E staining based analysis; type: organism-based; settings: in vivo, po, 336 h, time 14 day
[27] = Metabolic stability in human liver microsomes assessed as half-life incubated for 60 mins in the presence of NADPH by LC-MS/MS analysis; type: ADME, Microsome; settings: liver microsomes
[28] = Acute toxicity in Kunming mouse assessed as effect on animal death at 1000 mg/kg, IG administered as single dose and measured after 7 days; type: organism-based; settings: in vivo, po, 168 h, time 7 day
[29] = Metabolic stability in human liver microsomes assessed as compound remaining measured after 60 mins in the presence of NADPH by LC-MS/MS analysis; type: ADME, Microsome; settings: liver microsomes, read-out: Stability
[30] = MRT (0 to infinity) in Sprague-Dawley rat at 10 mg/kg, po measured at 15 to 720 min by LC-MS/MS analysis; type: ADME, organism-based; settings: in vivo, time 15-720 min
[31] = Cmax in Sprague-Dawley rat at 10 mg/kg, po measured at 15 to 720 min by LC-MS/MS analysis; type: ADME, organism-based; set-up: dose 10 mg/kg, time 15-720 min, route po; settings: in vivo
[32] = Half-life in Sprague-Dawley rat at 2 mg/kg, iv measured at 5 to 600 min by LC-MS/MS analysis; type: ADME, organism-based; settings: in vivo, time 5-600 min
[33] = AUC(0 to infinity) in Sprague-Dawley rat at 2 mg/kg, iv measured at 5 to 600 min by LC-MS/MS analysis; type: ADME, organism-based; set-up: time 5-600 min, dose 2 mg/kg, route iv; settings: in vivo
[34] = AUC(0 to last) in Sprague-Dawley rat at 2 mg/kg, iv measured at 5 to 600 min by LC-MS/MS analysis; type: ADME, organism-based; set-up: dose 2 mg/kg, time upper 600 min, time lower 5 min, route iv; settings: in vivo
[35] = Volume of distribution in Sprague-Dawley rat at 2 mg/kg, iv measured at 5 to 600 min by LC-MS/MS analysis; type: ADME, organism-based; settings: in vivo, time 5-600 min
[36] = tested on: Human immunodeficiency virus 1; experiment: microbe, parasite or virus in culture; settings: Human immunodeficiency virus 1, IIIB, MT4, 120 h
Description: Antiviral activity against wild type HIV-1 IIIB infected in human MT4 cells assessed as protection against virus-induced cytopathic effect incubated for 5 days by MTT assay

[37] = Subacute toxicity in Kunming mouse assessed as animal death at 50 mg/kg, IG administered via gavage every other day and measured after 14 days; type: organism-based; settings: in vivo, po, 336 h, time 14 day
[38] = tested on: Human immunodeficiency virus 1; type: functional, organism-based; settings: Human immunodeficiency virus 1, MT4, 120 h
[39] = tested on: Human immunodeficiency virus 1; experiment: Antiviral activity against NNRTI-resistant HIV-1 harboring L100I mutant infected in human MT4 cells assessed as protection against virus-induced cytopathic effect incubated for 5 days by MTT assay; type: functional, organism-based; settings: Human immunodeficiency virus 1, MT4, 120 h
[40] = Subacute toxicity in Kunming mouse assessed as at 50 mg/kg, po administered every other day and measured after 14 days; type: organism-based; settings: in vivo, 336 h, time 14 day
[41] = Subacute toxicity in Kunming mouse assessed as histopathological change in lung at 50 mg/kg, IG administered via gavage every other day and measured after 14 days by H&E staining based analysis; type: organism-based; settings: in vivo, po, 336 h, time 14 day
[42] = Acute toxicity in Kunming mouse assessed as effect on anorexia at 1000 mg/kg, IG administered as single dose and measured after 7 days; type: organism-based; settings: in vivo, po, 168 h, time 7 day
[43] = tested on: Human immunodeficiency virus 1; experiment: Antiviral activity against NNRTI-resistant HIV-1 harboring K103N mutant infected in human MT4 cells assessed as protection against virus-induced cytopathic effect incubated for 5 days by MTT assay; type: functional, organism-based; settings: Human immunodeficiency virus 1, MT4, 120 h
[44] = Subacute toxicity in Kunming mouse assessed as lethargy at 50 mg/kg, IG administered via gavage every other day and measured after 14 days; type: organism-based; settings: in vivo, po, 336 h, time 14 day
[45] = Metabolic stability in human liver microsomes assessed as intrinsic clearance incubated for 60 mins in the presence of NADPH by LC-MS/MS analysis; settings: liver microsomes
[46] = Subacute toxicity in Kunming mouse assessed as alopecia at 50 mg/kg, IG administered via gavage every other day and measured after 14 days; type: organism-based; settings: in vivo, po, 336 h, time 14 day
[47] = Metabolic stability in human liver assessed as intrinsic clearance incubated for 60 mins in the presence of NADPH by LC-MS/MS analysis; type: ADME, tissue-based; settings: read-out: CLH
[48] = tested on: Human immunodeficiency virus 1; type: functional, organism-based; settings: Human immunodeficiency virus 1, MT4, 120 h; remark: listed apart in the source
[49] = tested on: Human immunodeficiency virus 1; type: functional, organism-based; settings: Human immunodeficiency virus 1, MT4, 120 h; remark: listed apart in the source
in vitro [50] = settings: human, MT4 cells
Description: Selectivity index, ratio of CC50 for cytotoxicity against human MT4 cells to EC50 for antiviral activity against NNRTI-resistant HIV-1 harboring K103N and Y181C mutant infected in human MT4 cells

in vitro [51] = settings: human, MT4 cells; remark: listed apart in the source
Description: Selectivity index, ratio of CC50 for cytotoxicity against human MT4 cells to EC50 for antiviral activity against NNRTI-resistant HIV-1 harboring E138K mutant infected in human MT4 cells

in vitro [52] = settings: human, MT4 cells; remark: listed apart in the source
Description: Selectivity index, ratio of CC50 for cytotoxicity against human MT4 cells to EC50 for antiviral activity against NNRTI-resistant HIV-1 harboring K103N mutant infected in human MT4 cells

in vitro [53] = settings: human, MT4 cells; remark: listed apart in the source
Description: Selectivity index, ratio of CC50 for cytotoxicity against human MT4 cells to EC50 for antiviral activity against NNRTI-resistant HIV-1 harboring F227L and V106A mutant infected in human MT4 cells

[54] = tested on: Human immunodeficiency virus 1; experiment: Potency index, ratio of efavirenz EC50 to test compound EC50 for antiviral activity against NNRTI-resistant HIV-1 harboring K103N mutant infected in human MT4 cells assessed as protection against virus-induced cytopathic effect incubated for 5 days by MTT assay; type: functional; settings: time 5 day
in vitro [55] = settings: human, MT4 cells; remark: listed apart in the source
Description: Selectivity index, ratio of CC50 for cytotoxicity against human MT4 cells to EC50 for antiviral activity against NNRTI-resistant HIV-1 harboring L100I mutant infected in human MT4 cells

in vitro [56] = settings: human, MT4 cells; remark: listed apart in the source
Description: Selectivity index, ratio of CC50 for cytotoxicity against human MT4 cells to EC50 for antiviral activity against NNRTI-resistant HIV-1 harboring Y181C mutant infected in human MT4 cells

in vitro [57] = settings: human, MT4 cells; remark: listed apart in the source
Description: Selectivity index, ratio of CC50 for cytotoxicity against human MT4 cells to EC50 for antiviral activity against NNRTI-resistant HIV-1 harboring Y188L mutant infected in human MT4 cells

in vitro [58] = settings: human, MT4 cells; remark: listed apart in the source
Description: Selectivity index, ratio of CC50 for cytotoxicity against human MT4 cells to EC50 for antiviral activity against wildtype HIV-1 IIIB infected in human MT4 cells

CCC(=O)N1CCc2nc(Nc3ccc(C#N)cc3)nc(Oc3c(C)cc(C#N)cc3C)c2C1
MRT inf [1]: 39.8 min
Activity [2]: Non-Toxic
MRT last [3]: 38.9 min
EC50 [4]: 11 nM
Activity [5]: Non-Toxic
AUC(0-t) [6]: 16 ng·h/mL
Activity [7]: Non-Toxic
Activity [8]: Non-Toxic
Activity [9]: Non-Toxic
half-life [10]: > 289 min
Activity [11]: Non-Toxic
Tmax [12]: 30 min
remaining at 2 h [13]: 97.1%
Activity [14]: Non-Toxic
AUC(0-inf) [15]: 23.4 ng·h/mL
Activity [16]: Non-Toxic
IC50 [17]: 70 nM
half-life [18]: 142 min
clearance [19]: 19.4 mL/min/kg
Activity [20]: Non-Toxic
Activity [21]: Non-Toxic
Activity [22]: Non-Toxic
EC50 [23]: 38.8 nM
Activity [24]: Non-Toxic
CC50 at 120 h [25]: 10800 nM
Activity [26]: Non-Toxic
half-life [27]: 10 min
Activity [28]: Non-Toxic
remaining at 1 h [29]: 1.6%
MRT inf [30]: 214 min
Cmax [31]: 7.71 ng/mL
half-life [32]: 56.5 min
AUC(0-inf) [33]: 1740 ng·h/mL
AUC(0-t) [34]: 1730 ng·h/mL
Vd [35]: 0.771 L/kg
EC50 [36]: 2.71 nM
Activity [37]: Non-Toxic
EC50 [38]: 14.9 nM
EC50 [39]: 14.6 nM
Activity [40]: Non-Toxic
Activity [41]: Non-Toxic
Activity [42]: Non-Toxic
EC50 [43]: 1.88 nM
Activity [44]: Non-Toxic
microsomal CLint at 1 h [45]: 138 µL/min/mg
Activity [46]: Non-Toxic
CLint scaled [47]: 125 mL/min/kg
EC50 [48]: 31 nM
EC50 [49]: 10.9 nM

Cc1cc(C#N)cc(C)c1Oc1nc(Nc2ccc(C#N)cc2)nc2c1CN(Cc1ccc(C(N)=O)cc1)CC2
EC50 [4]: 13.4 nM
selectivity ratio (in vitro [50]): 1180
selectivity ratio (in vitro [51]): 7560
IC50 [17]: 123 nM
selectivity ratio (in vitro [52]): 12900
selectivity ratio (in vitro [53]): 914
EC50 [23]: 111 nM
CC50 at 120 h [25]: 101000 nM
Ratio EC50 [54]: 17
selectivity ratio (in vitro [55]): 1510
EC50 [36]: 6.7 nM
EC50 [38]: 34.2 nM
EC50 [39]: 67 nM
selectivity ratio (in vitro [56]): 2960
EC50 [43]: 7.84 nM
selectivity ratio (in vitro [57]): 5550
selectivity ratio (in vitro [58]): 15100
EC50 [48]: 85.8 nM
EC50 [49]: 183 nM
